Measurements reported in the supplement of paper PMC8671470.

Legend:
Details in all cases: 72 h
KG-1 = experiment: cell viability (% survival relative to DMSO control, bortezomib = 0%); higher = less cytotoxic
Method in brief: (§1)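 Fifteen myeloid leukaemia cell lines (10 AML, 5 CML) were seeded at a density titrated to the linear growth range into 384-well plates pre-printed with compounds at 1, 10, 100, 1000 or 10000 nM in duplicate. Plates were incubated for 72 h at 37 °C with 5% CO2. Viability was then read by CellTiter-Glo luminescence. Each value is percent survival averaged over the duplicates, with vehicle set to 100% and a 10 µM positive control to 0%.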

K-562 = experiment: as above
Method in brief: as §1

SHI-1 = experiment: as above
Method in brief: as §1

HEL = experiment: as above
Method in brief: as §1

ML-2 = experiment: as above
Method in brief: as §1

MOLM-13 = experiment: as above
Method in brief: as §1

THP-1 = experiment: as above
Method in brief: as §1

KU-812 = experiment: as above
Method in brief: as §1

Mono-Mac-6 = experiment: as above
Method in brief: as §1

BV-173 = experiment: as above
Method in brief: as §1

HL-60 [1] = experiment: as above
Method in brief: as §1

KCL-22 [2] = experiment: as above
Method in brief: as §1

LAMA-84 = experiment: as above
Method in brief: as §1

MV4-11 = experiment: as above
Method in brief: as §1

NOMO-1 = experiment: as above
Method in brief: as §1

KCL-22 [3] = system: KCL-22
Method in brief: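 Fifteen myeloid leukaemia lines were incubated for 72 h at 37 °C with 5% CO2 across five tenfold doses from 1 to 10,000 nM, in duplicate. ATP luminescence was normalised to vehicle and to a positive control at 10 µM and fitted with a four-parameter log-logistic model. The IC50 came from these dose–response fits.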

HL-60 [4] = experiment: cell viability (% survival relative to DMSO control); higher = less cytotoxic
Method in brief: (§2)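 Area under the curve, where listed, was derived from four-parameter log-logistic fits with drc and PharmacoGx. These fits used CellTiter-Glo viability from HL-60 cells in RPMI 1640 with 10% FBS, normalised to DMSO wells and wells holding 10 μM proteasome inhibitor. The full library was rescreened on 384-well plates in duplicate at five tenfold concentrations, 1–10,000 nM, with DMSO or 100 nM of one of three metabolic inhibitors, for 72 h at 37 °C, 5% CO2.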

HL-60 [5] = experiment: area under dose-response curve (viability, 1 nM-10 uM) (fraction (0-1)); higher = more sensitive
Method in brief: as §2

CN1CC(=O)N2[C@H](c3ccc4c(c3)OCO4)c3[nH]c4ccccc4c3C[C@@H]2C1=O [Tadalafil]
Details | area under dose-response curve, co-treatment: AZD3965 100 nM | area under dose-response curve, co-treatment: DMSO vehicle | area under dose-response curve, co-treatment: GSK2194069 100 nM | area under dose-response curve, co-treatment: pictilisib 100 nM | cell viability, 1 nM [%] | cell viability, 10 nM [%] | cell viability, 100 nM [%] | cell viability, 1000 nM [%] | cell viability, 10000 nM [%]
BV-173 | – | – | – | – | 95.5 | 87 | 89.6 | 96.8 | 88.3
HEL | – | – | – | – | 103 | 77.5 | 93.1 | 98 | 94.7
HL-60 [1] | – | – | – | – | 106 | 75.2 | 107 | 72.9 | 117
HL-60 [5] | < 0.0301 | < 0.0301 | < 0.0301 | < 0.0301 | – | – | – | – | –
K-562 | – | – | – | – | 108 | 105 | 90.6 | 96.4 | 91
KCL-22 [2] | – | – | – | – | 103 | 89.2 | 92 | 101 | 81.7
KG-1 | – | – | – | – | 107 | 98.4 | 99.8 | 103 | 99.4
KU-812 | – | – | – | – | 98.8 | 87.8 | 99.2 | 106 | 96
LAMA-84 | – | – | – | – | 101 | 97.9 | 96.8 | 102 | 103
ML-2 | – | – | – | – | 95.6 | 94.1 | 92 | 101 | 94.9
MOLM-13 | – | – | – | – | 106 | 85.3 | 98.4 | 97.9 | 73.3
MV4-11 | – | – | – | – | 100 | 86.7 | 95.3 | 102 | 92.6
Mono-Mac-6 | – | – | – | – | 99.8 | 93 | 94.8 | 95.4 | 99
NOMO-1 | – | – | – | – | 97.8 | 95.1 | 96.6 | 105 | 108
SHI-1 | – | – | – | – | 109 | 102 | 98.9 | 97.8 | 88.3
THP-1 | – | – | – | – | 96.7 | 97.9 | 94.9 | 98.4 | 96.6

Details | IC50 (cell viability) [µM]
KCL-22 [3] | > 10

cell viability [%], HL-60 [4]
Details | 0.001 µM | 0.01 µM | 0.1 µM | 1 µM | 10 µM
co-treatment: AZD3965 100 nM | 104 | 105.1 | 97.6 | 104 | 109
co-treatment: DMSO vehicle | 100.5 | 103 | 98 | 100 | 112
co-treatment: GSK2194069 100 nM | 101.9 | 106 | 102 | 105 | 95.2
co-treatment: pictilisib 100 nM | 99.6 | 94.8 | 96.9 | 93.4 | 89.9

Cc1[nH]n(-c2ccccc2)c(=O)c1C1(C(F)(F)F)C(=O)N(c2ccccc2)C2=C1C(=O)CC(C)(C)C2 (stereo not given)
Details | area under dose-response curve, co-treatment: AZD3965 100 nM | area under dose-response curve, co-treatment: DMSO vehicle | area under dose-response curve, co-treatment: GSK2194069 100 nM | area under dose-response curve, co-treatment: pictilisib 100 nM | cell viability, 1 nM [%] | cell viability, 10 nM [%] | cell viability, 100 nM [%] | cell viability, 1000 nM [%] | cell viability, 10000 nM [%]
BV-173 | – | – | – | – | 103 | 89.2 | 128 | 99.8 | 111
HEL | – | – | – | – | 94.3 | 104 | 108 | 90.8 | 90.9
HL-60 [1] | – | – | – | – | 121 | 120 | 104 | 77.6 | 103
HL-60 [5] | < 0.0301 | < 0.0301 | < 0.0301 | < 0.0301 | – | – | – | – | –
K-562 | – | – | – | – | 89.6 | 100 | 103 | 108 | 97.3
KCL-22 [2] | – | – | – | – | 84.5 | 140 | 99.2 | 108 | 103
KG-1 | – | – | – | – | 96.7 | 97.6 | 97.8 | 93.7 | 107
KU-812 | – | – | – | – | 104 | 94.3 | 97.7 | 111 | 95.3
LAMA-84 | – | – | – | – | 106 | 92.6 | 99.9 | 110 | 92.4
ML-2 | – | – | – | – | 98.6 | 87.9 | 115 | 101 | 99.8
MOLM-13 | – | – | – | – | 91.4 | 114 | 98.5 | 100 | 99.8
MV4-11 | – | – | – | – | 105 | 104 | 99.4 | 97.1 | 96.4
Mono-Mac-6 | – | – | – | – | 115 | 98.1 | 105 | 97.1 | 101
NOMO-1 | – | – | – | – | 104 | 94.6 | 108 | 101 | 101
SHI-1 | – | – | – | – | 101 | 109 | 109 | 108 | 104
THP-1 | – | – | – | – | 101 | 97.5 | 93.8 | 93.2 | 92

Details | IC50 (cell viability) [µM]
KCL-22 [3] | > 10

cell viability [%], HL-60 [4]
Details | 0.001 µM | 0.01 µM | 0.1 µM | 1 µM | 10 µM
co-treatment: AZD3965 100 nM | 101.7 | 100.9 | 107 | 98.5 | 102
co-treatment: DMSO vehicle | 99.8 | 100 | 102 | 102 | 102
co-treatment: GSK2194069 100 nM | 98.536 | 106 | 105 | 100.4 | 97.8
co-treatment: pictilisib 100 nM | 97.2 | 95.5 | 101 | 102 | 104
